From ChEMBL document CHEMBL1221220, “Transport and signaling via the amino acid binding site of the yeast Gap1 amino acid transceptor” (Nat Chem Biol, 2009)
Non-standard residues stand in square brackets, D forms with d. Residues, ends and D or L forms follow the SMILES beside them. *: point of attachment. Hyp = O=C(O)[C@@H]1C[C@@H](O)CN1; Abu = CC[C@H](N)C(=O)O; Boc = CC(C)(C)OC(=O)*; Sar = CNCC(=O)O

Each molecule was assayed against T1, General amino-acid permease GAP1 (Saccharomyces cerevisiae) (UniProt P19145). Conditions: sigma1278b, at 5 mM.
T1 sequence (whole entry): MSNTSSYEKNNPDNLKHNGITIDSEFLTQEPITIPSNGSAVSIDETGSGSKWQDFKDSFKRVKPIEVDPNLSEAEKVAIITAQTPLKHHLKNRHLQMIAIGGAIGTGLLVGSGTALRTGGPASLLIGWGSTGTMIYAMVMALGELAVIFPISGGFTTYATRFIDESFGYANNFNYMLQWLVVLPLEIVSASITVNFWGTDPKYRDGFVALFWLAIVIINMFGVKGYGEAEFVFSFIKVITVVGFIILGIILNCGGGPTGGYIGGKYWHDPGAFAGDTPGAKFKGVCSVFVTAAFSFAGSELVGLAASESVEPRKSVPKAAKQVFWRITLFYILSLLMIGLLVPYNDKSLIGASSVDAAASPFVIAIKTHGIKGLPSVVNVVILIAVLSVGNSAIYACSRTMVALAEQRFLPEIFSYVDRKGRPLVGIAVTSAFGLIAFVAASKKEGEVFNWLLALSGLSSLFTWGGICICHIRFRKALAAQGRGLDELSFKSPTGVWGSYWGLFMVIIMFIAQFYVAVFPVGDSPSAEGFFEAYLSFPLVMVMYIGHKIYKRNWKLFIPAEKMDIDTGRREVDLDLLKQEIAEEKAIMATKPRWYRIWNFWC
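Further: amino acid uptake through Gap1 in nitrogen-starved wild-type yeast cells, measured after 60 s and expressed relative to L-citrulline.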
Description: Inhibition of nitrogen-starved wild type sigma1278b yeast Gap1-mediated amino acid uptake at 5 mM after 60 secs relative to L-citrulline

| SMILES | inhibition [%] |
| --- | --- |
| N[C@@H](CO)C(=O)N[C@@H](CO)C(=O)N[C@@H](CO)C(=O)O (H-Ser-Ser-Ser-OH) | < 15 |
| CC(=O)NCC(=O)N[C@@H](Cc1cnc[nH]1)C(=O)N[C@@H](CCCCN)C(=O)O (Ac-Gly-His-Lys-OH) | < 15 |
| CC(C)C[C@H](NC(=O)[C@@H]1C[C@@H](O)CN1)C(=O)O (H-[Hyp]-Leu-OH) | < 15 |
| CN(CC(=O)O)C(=O)CNC(=O)CN (H-Gly-Gly-[Sar]-OH) | < 15 |
| COC(=O)CC[C@H](NC(=O)OC(C)(C)C)C(=O)O | < 15 |
| COC(=O)CC[C@H](N)C(=O)OC | < 15 |
| O=C(O)[C@@H]1C=CCN1 | < 15 |
| C[C@@H](O)[C@H](NC(=O)OC(C)(C)C)C(=O)O | < 15 |
| NCC(=O)N[C@@H](Cc1ccccc1)C(=O)O | > 30 |
| CC(=O)N[C@@H](CCC(=O)OC(C)(C)C)C(=O)O | < 15 |
| CC(NC(=O)CN)C(=O)O (racemic) | 15 |
| CC(C)C[C@@H](N)C(=O)NCC(=O)O (H-[dL]-Gly-OH) | < 15 |
| CSCC[C@H](NC(=O)[C@@H](N)Cc1cnc[nH]1)C(=O)O (H-His-Met-OH) | 15 |
| CC(=O)N[C@@H](COC(C)(C)C)C(=O)O | < 15 |
| CC(C)[C@H](NC(=O)[C@@H](N)Cc1ccccc1)C(=O)O (H-Phe-Val-OH) | < 15 |
| NCC(=O)NCC(=O)N1CCC[C@H]1C(=O)O (H-Gly-Gly-Pro-OH) | < 15 |
| CCOC(=O)[C@@H](N)Cc1ccccc1 | < 15 |
| NCC(=O)NCC(=O)N[C@@H](Cc1ccccc1)C(=O)O (H-Gly-Gly-Phe-OH) | < 15 |
| CC(C)C[C@H](NC(=O)CCN)C(=O)O | < 15 |
| CC[C@H](C)[C@H](N)C(=O)N[C@@H](CC(C)C)C(=O)O (H-Ile-Leu-OH) | > 30 |
| N[C@@H](CO)C(=O)NCC(=O)NCC(=O)O (H-Ser-Gly-Gly-OH) | < 15 |
| N[C@@H](Cc1ccc(O)cc1)C(=O)NCC(=O)O | < 15 |
| COC(=O)[C@H](Cc1ccccc1)NC(=O)C[C@H](N)C(=O)O | > 30 |
| N[C@@H](Cc1c[nH]cn1)C(=O)N[C@@H](CO)C(=O)O (H-His-Ser-OH) | < 15 |
| CCOC(=O)[C@@H](N)CCSC | < 15 |

| SMILES | inhibition [%] |
| --- | --- |
| NCC(=O)NCC(=O)O (H-Gly-Gly-OH) | < 15 |
| NC(=O)[C@@H](N)CO | < 15 |
| CC(C)C[C@H](NC(=O)CN)C(=O)O | < 15 |
| N[C@@H](Cc1cnc[nH]1)C(=O)NCCS(=O)(=O)O | < 15 |
| CC[C@H](C)[C@H](NC(=O)OCc1ccccc1)C(=O)O | 15 |
| C[C@H](N)C(=O)NCC(=O)O | > 30 |
| CC(C)C[C@@H](N)C(=O)NCC(=O)NCC(=O)O (H-[dL]-Gly-Gly-OH) | < 15 |
| NCC(=O)N[C@@H](CO)C(=O)NCCS(=O)(=O)O | < 15 |
| CCCC(NC(=O)CN)C(=O)O (racemic) | 15 |
| CC(N)(Cc1ccccc1)C(=O)O (stereo not drawn) | < 15 |
| NCC(N)=O | < 15 |
| C[C@H](N)C(=O)NCC(=O)O (racemic) | > 30 |
| C[C@@H](O)[C@@H](NC(=O)CN)C(=O)O | < 15 |
| NC(=O)[C@H](Cc1ccccc1)NC(=O)[C@@H](N)CC(=O)O (H-Asp-Phe-NH2) | < 15 |
| CC(C)C[C@@H](N)C(=O)N[C@H](Cc1ccc(O)cc1)C(=O)O | < 15 |
| N[C@@H](CO)C(=O)N[C@@H](Cc1ccc(O)cc1)C(=O)O (H-Ser-Tyr-OH) | < 15 |
| CC[C@H](C)[C@H](NC(=O)[C@@H](N)CC(C)C)C(=O)O (H-Leu-Ile-OH) | < 15 |
| NCC(=O)NCC(=O)N[C@@H](CC(=O)O)C(=O)O (H-Gly-Gly-Asp-OH) | < 15 |
| CC(C)[C@@H](NC(=O)CN)C(=O)O | < 15 |
| CC(C)C[C@H](NC(=O)[C@@H](N)CC(C)C)C(=O)N[C@@H](CC(=O)O)C(=O)O (H-Leu-Leu-Asp-OH) | > 30 |
| C[C@H](N)C(=O)N[C@@H](CC(N)=O)C(=O)O (H-Ala-Asn-OH) | > 30 |
| COC(=O)[C@H](N)Cc1cnc[nH]1 | < 15 |
| N[C@@H](Cc1cnc[nH]1)C(=O)N[C@@H](CCC(=O)O)C(=O)O (H-His-Glu-OH) | < 15 |
| N[C@@H](Cc1ccc(O)cc1)C(=O)N[C@@H](Cc1ccc(O)cc1)C(=O)N[C@@H](Cc1ccc(O)cc1)C(=O)O (H-Tyr-Tyr-Tyr-OH) | < 15 |
| CC[C@H](C)[C@H](N)C(=O)N[C@@H](C)C(=O)N1CCC[C@H]1C(=O)O (H-Ile-Ala-Pro-OH) | 15 |

| SMILES | inhibition [%] |
| --- | --- |
| C[C@H](N)C(=O)N[C@@H](CCC(=O)O)C(N)=O (H-Ala-Glu-NH2) | < 15 |
| CC(C)C[C@@H](NC(=O)CNC(=O)CN)C(=O)O | < 15 |
| CC(C)CC(N)C(=O)NC(CC(C)C)C(=O)O (racemic) | > 30 |
| CSCC[C@H](NC(=O)[C@@H](N)Cc1c[nH]c2ccccc12)C(=O)O (H-Trp-Met-OH) | < 15 |
| CCCC(NC(=O)C(C)N)C(=O)O (racemic) | < 15 |
| C[C@H](NC(=O)[C@@H](N)[C@@H](C)O)C(=O)O (H-Thr-Ala-OH) | < 15 |
| CC(C)C[C@H](NC(=O)CNC(=O)CN)C(=O)O | < 15 |
| NCC(=O)N[C@@H](CCC(=O)O)C(=O)O (H-Gly-Glu-OH) | < 15 |
| NC(=O)[C@@H](N)Cc1c[nH]c2ccccc12 | < 15 |
| CC[C@H](C)[C@H](N)C(N)=O | < 15 |
| CC(=O)N[C@@H](CC[S+](C)[O-])C(=O)O (stereo partly drawn) | < 15 |
| NCC(=O)NCC(=O)NCC(=O)O | < 15 |
| CC(C)[C@H](N)C(=O)N[C@H](C(=O)N[C@@H](C(=O)O)C(C)C)C(C)C (H-Val-Val-[dV]-OH) | < 15 |
| CC(C)C[C@H](NC(=O)[C@@H](NC(=O)[C@@H](N)[C@@H](C)O)C(C)C)C(=O)O (H-Thr-Val-Leu-OH) | < 15 |
| CSCC[C@H](N)C(=O)NCC(=O)O (H-Met-Gly-OH) | < 15 |
| CC(C)C[C@H](NC(=O)[C@@H](N)CC(C)C)C(=O)N1CCC[C@H]1C(=O)O (H-Leu-Leu-Pro-OH) | < 15 |
| CC(C)C[C@H](N)C(=O)N[C@@H](CC(N)=O)C(=O)O (H-Leu-Asn-OH) | < 15 |
| C[C@H](N)C(=O)N[C@@H](CO)C(=O)O (H-Ala-Ser-OH) | > 30 |
| NC(=O)[C@H](CCC(=O)O)NC(=O)[C@@H]1CCCN1 (H-Pro-Glu-NH2) | < 15 |
| N[C@@H](CCC(=O)O)C(=O)N[C@@H](CCC(=O)O)C(=O)O (H-Glu-Glu-OH) | < 15 |
| CCCC[C@H](NC(=O)OC(C)(C)C)C(=O)O | < 15 |
| C[C@H](N)C(=O)N[C@@H](Cc1cnc[nH]1)C(=O)O (H-Ala-His-OH) | > 30 |
| CC[C@H](N)C(=O)N[C@@H](CC(C)C)C(=O)O (H-[Abu]-Leu-OH) | < 15 |
| CC[C@H](C)[C@H](NC(C)=O)C(=O)O | < 15 |
| C[C@H](NC(=O)CN)C(=O)O (H-Gly-Ala-OH) | 15 |

| SMILES | inhibition [%] |
| --- | --- |
| N[C@@H](Cc1c[nH]c2ccccc12)C(=O)N[C@@H](CCC(=O)O)C(=O)O (H-Trp-Glu-OH) | < 15 |
| CSCC[C@H](N)C(=O)NCC(=O)N[C@@H](CC(=O)O)C(=O)O (H-Met-Gly-Asp-OH) | < 15 |
| N[C@@H](Cc1ccc(O)cc1)C(=O)N[C@@H](Cc1ccc(O)cc1)C(=O)NCC(=O)O (H-Tyr-Tyr-Gly-OH) | < 15 |
| N[C@H](CO)Cc1c[nH]c2ccccc12 | < 15 |
| N[C@@H](CC(=O)O)C(=O)N[C@@H](CO)C(=O)O (H-Asp-Ser-OH) | < 15 |
| CC(C)C[C@H](NC(=O)CNC(=O)c1ccccc1)C(N)=O | < 15 |
| CC(C)C[C@@H](N)C(=O)N[C@@H](CC(C)C)C(=O)O | < 15 |
| NCCCC[C@H](NC(=O)[C@@H](N)CCCCN)C(=O)O | < 15 |
| C[C@@H](O)[C@H](N)C(=O)N[C@@H](CCCCN)C(=O)N[C@@H](Cc1ccc(O)cc1)C(=O)O (H-Thr-Lys-Tyr-OH) | < 15 |
| CC(C)C[C@H](NC(=O)[C@@H](N)CC(C)C)C(=O)N[C@@H](CCC(=O)O)C(=O)O (H-Leu-Leu-Glu-OH) | 15 |
| N[C@@H](CS)C(=O)NCC(=O)O | < 15 |
| CC(C)C[C@H](NC(=O)CN)C(=O)N1C[C@H](O)C[C@H]1C(=O)O (H-Gly-Leu-[Hyp]-OH) | < 15 |
| N[C@H]1CSSC[C@@H](C(=O)O)NC1=O | 15 |
| CSCC[C@H](N)C(=O)N[C@@H](Cc1cnc[nH]1)C(=O)O (H-Met-His-OH) | < 15 |
| CC(C)(C)OC(=O)NCC(=O)N1CCC[C@H]1C(=O)N1CCC[C@H]1C(=O)O (Boc-Gly-Pro-Pro-OH) | < 15 |
| CC(C)(C)OC(=O)[C@@H](N)CSSC[C@H](N)C(=O)OC(C)(C)C | < 15 |
| C[C@@H](NC(=O)[C@@H](N)CCC(=O)O)C(=O)O | < 15 |
| C[C@H](N)C(=O)OC(C)(C)C | < 15 |
| O=C(O)[C@@H]1CNCCN1 | < 15 |
| N[C@@H](Cc1ccc(O)cc1)C(=O)N[C@@H](CCC(=O)O)C(=O)O (H-Tyr-Glu-OH) | < 15 |
| NCC(=O)NCC(=O)N[C@@H](CO)C(=O)O | < 15 |
| N[C@@H](Cc1ccco1)C(=O)O | > 30 |
| CC[C@H](C)[C@H](NC(=O)CN)C(=O)O (H-Gly-Ile-OH) | < 15 |
